According to US20140309256A1, “Therapeutic Method” (FibroGen, Inc., priority 2011, published 2014):

Experiments:
PHD1 = PHD1 (Homo sapiens, UniProt Q96KS0); test: HIF prolyl hydroxylase enzyme assay, PHD1; assay type: biochemical
Excerpt: (§1) Suitable assay methods are well known in the art.

PHD3 = PHD3 (Homo sapiens, UniProt Q9H6Z9); test: HIF prolyl hydroxylase enzyme assay, PHD3; assay type: biochemical
Excerpt: as §1

[1] = system: Human subjects with stage 3 or 4 chronic kidney disease; test: Hemoglobin levels in chronic kidney disease patients treated orally with Compound A; assay type: in vivo; conditions: all groups A-D, oral, 16 or 24 weeks; all p<0.0001; dose-dependent
Protocol: No intravenous iron administration was allowed during the treatment, and subjects who had received more than one administration of IV iron within 12 weeks prior to randomization were excluded. […] Treatment was continued for weeks 5 through 16 with dose adjusted every 4 weeks to maintain hemoglobin of 11-13 g/dL (target Hb range). Group A continued dosing three time a week, Group B was switched to twice weekly dosing. Groups C (n=24) received a initial fixed dose of 50 mg, three times a week for 4 weeks and group D (n=24) received an initial fixed dose of 100 mg, three times a week. Treatment was continued for weeks 5 to 24 with dose adjusted to maintain hemoglobin of 10.5-12 g/dL (target Hb range). Hemoglobin and platelet counts were measured every 4 weeks.

[2] = system: Human subjects with stage 3 or 4 chronic kidney disease; test: Platelet counts in chronic kidney disease patients treated orally with Compound A; assay type: in vivo
Protocol: No intravenous iron administration was allowed during the treatment, and subjects who had received more than one administration of IV iron within 12 weeks prior to randomization were excluded.
Groups A (n=24) and B (n=24) received an initial weight-adjusted dose of 60 mg (for subjects of 40 to 60 kg), 100 mg (for subjects of >60 to 90 kg), or 140 mg (for subjects of >90 to 140 kg), three times a week for 4 weeks. Treatment was continued for weeks 5 through 16 with dose adjusted every 4 weeks to maintain hemoglobin of 11-13 g/dL (target Hb range). Group A continued dosing three time a week, Group B was switched to twice weekly dosing.
Groups C (n=24) received a initial fixed dose of 50 mg, three times a week for 4 weeks and group D (n=24) received an initial fixed dose of 100 mg, three times a week. Treatment was continued for weeks 5 to 24 with dose adjusted to maintain hemoglobin of 10.5-12 g/dL (target Hb range). Hemoglobin and platelet counts were measured every 4 weeks.
In a separate analysis of the data from Example 1, all patient data on platelet count over time was combined and stratified into quartiles based on the baseline platelet count. Each quartile had n=24. Quartile 1 included the 24 patients with the lowest baseline platelet count. Quartile 2 included the 24 patients with the next highest baseline platelet count after the patients in quartile 1. Quartile 3 included the 24 patients with the next highest baseline platelet count after the patients in quartile 2. Quartile 4 included the 24 patients with the highest baseline platelet count.

treated subjects = conditions: treatment of anemia with ESA; cited from earlier work

PHD1, sequence (Q96KS0 whole entry): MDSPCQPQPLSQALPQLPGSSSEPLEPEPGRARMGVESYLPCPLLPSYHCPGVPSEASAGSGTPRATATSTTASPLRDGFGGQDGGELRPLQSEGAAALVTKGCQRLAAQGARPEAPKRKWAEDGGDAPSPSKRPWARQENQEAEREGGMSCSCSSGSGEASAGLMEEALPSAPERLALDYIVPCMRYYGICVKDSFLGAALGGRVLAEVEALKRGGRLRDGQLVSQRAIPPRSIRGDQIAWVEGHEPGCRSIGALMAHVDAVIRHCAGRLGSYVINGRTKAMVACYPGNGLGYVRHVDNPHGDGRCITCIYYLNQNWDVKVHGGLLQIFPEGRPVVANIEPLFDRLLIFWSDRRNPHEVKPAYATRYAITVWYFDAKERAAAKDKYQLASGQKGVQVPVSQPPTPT
PHD3, sequence (Q9H6Z9 whole entry): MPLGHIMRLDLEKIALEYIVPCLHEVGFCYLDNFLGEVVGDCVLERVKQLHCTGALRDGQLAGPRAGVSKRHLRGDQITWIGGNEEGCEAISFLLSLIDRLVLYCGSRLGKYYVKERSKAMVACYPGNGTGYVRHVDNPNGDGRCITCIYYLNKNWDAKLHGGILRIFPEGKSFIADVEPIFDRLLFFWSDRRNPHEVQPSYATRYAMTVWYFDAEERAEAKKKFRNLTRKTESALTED

Row | Molecule | IC50 (PHD1) [µM] | IC50 (PHD3) [µM] | Mean hemoglobin concentrations, end of treatment vs. baseline [1] | Mean platelet count change from baseline to end of treatment ([2]; Group A, weight-adjusted dose three times a week, 16 weeks, baseline 267, p<0.0001) | Mean platelet count change from baseline to end of treatment ([2]; Group B, weight-adjusted dose, switched to twice weekly, 16 weeks, baseline 292, p<0.0001) | Mean platelet count change from baseline to end of treatment ([2]; Group C, initial fixed dose 50 mg three times a week, 24 weeks, baseline 255, p=0.89) | Mean platelet count change from baseline to end of treatment ([2]; Group D, initial fixed dose 100 mg three times a week, 24 weeks, baseline 231, p=0.30) | Mean change in platelet count from baseline to end of treatment, combined groups ([2]; week 17, p<0.0001) | Mean change in platelet count from baseline to end of treatment, combined groups ([2]; week 25, p=0.41) | Platelet count over course of treatment, stratified by baseline quartile ([2]; lower 3 quartiles, mean baseline 164.9, 224.8, 272.2 ×10^9/L) | Platelet count over course of treatment, stratified by baseline quartile ([2]; quartile 4 (highest), mean baseline 388.7×10^9/L) | Effect on platelet count in treated subjects (treated subjects)
1 | Cc1nc(C(=O)NCC(=O)O)c(O)c2ccc(Oc3ccccc3)cc12 [Compound A, [(4-hydroxy-1-methyl-7-phenoxy-isoquinoline-3-carbonyl)-amino]-acetic acid] | 0.2 to 2 | 0.2 to 2 | increased from the baseline | −46.55 1×10^9/L | −43.67 1×10^9/L | −1.69 1×10^9/L | −11.88 1×10^9/L | −30.05 | −6.94 | maintained at (or not significantly increased from) the baseline level | decreased from baseline | 
2 | epoetin beta: erythropoiesis-stimulating agent, recombinant human erythropoietin (rHuEPO) |  |  |  |  |  |  |  |  |  |  |  | increase platelet count
3 | epoetin α: erythropoiesis-stimulating agent, recombinant human erythropoietin (rHuEPO) |  |  |  |  |  |  |  |  |  |  |  | increase platelet count
